Data from ChEMBL document CHEMBL3045383, “Synthesis, characterization, anticancer activity, and QSAR-studies of some new tetrahydropyrimidines” (2011).

Tests used:
Assay type in all cases: functional
CAKI-1 = assay: Cytotoxicity against Homo sapiens (human) CAKI-1 cells after 48 hr by SRB assay; details: CAKI-1, 48 h
SF-268 = assay: Cytotoxicity against Homo sapiens (human) SF268 cells after 48 hr by SRB assay; details: SF-268, 48 h
SK-MEL-5 = assay: Cytotoxicity against Homo sapiens (human) SK-MEL-5 cells after 48 hr by SRB assay; details: SK-MEL-5, 48 h
COLO 205 = assay: Cytotoxicity against Homo sapiens (human) COLO205 cells after 48 hr by SRB assay; details: COLO 205, 48 h
IGROV-1 = assay: Cytotoxicity against Homo sapiens (human) IGROV1 cells after 48 hr by SRB assay; details: IGROV-1, 48 h
PC-3 = assay: Cytotoxicity against Homo sapiens (human) PC3 cells after 48 hr by SRB assay; details: PC-3, 48 h
NCI/ADR-RES = assay: Cytotoxicity against Homo sapiens (human) NCI/ADR-RES cells after 48 hr by SRB assay
HOP-92 = assay: Cytotoxicity against Homo sapiens (human) HOP92 cells after 48 hr by SRB assay; details: HOP-92, 48 h
HL-60(TB) = assay: Cytotoxicity against Homo sapiens (human) HL-60(TB) cells after 48 hr by SRB assay; details: HL-60, 48 h

CC1=C(C(=O)Nc2ccc(Cl)c(Cl)c2)C(c2ccccc2Cl)NC(=S)N1 (stereo not drawn)
GI50 (CAKI-1): 17.8 µM | GI50 (SF-268): 8.91 µM | GI50 (SK-MEL-5): 10 µM | GI50 (COLO 205): 7.94 µM | GI50 (IGROV-1): 15.8 µM | GI50 (PC-3): 20 µM | GI50 (NCI/ADR-RES): 15.8 µM | GI50 (HOP-92): 1.2 µM | GI50 (HL-60(TB)): 15.5 µM

CC1=C(C(=O)Nc2ccc(Cl)c(Cl)c2)C(c2cccc(Cl)c2)NC(=O)N1 (stereo not drawn)
GI50 (CAKI-1): 12.6 µM | GI50 (SF-268): 11.2 µM | GI50 (SK-MEL-5): 9.55 µM | GI50 (COLO 205): 7.94 µM | GI50 (IGROV-1): 10.5 µM | GI50 (PC-3): 50.1 µM | GI50 (NCI/ADR-RES): 16.6 µM | GI50 (HOP-92): 45.7 µM | GI50 (HL-60(TB)): 13.5 µM

CC1=C(C(=O)Nc2ccc(F)c(Cl)c2)C(c2ccccc2Cl)NC(=S)N1 (stereo not drawn)
GI50 (CAKI-1): 31.6 µM | GI50 (SF-268): 14.8 µM | GI50 (SK-MEL-5): 12.3 µM | GI50 (COLO 205): 24 µM | GI50 (IGROV-1): 17.8 µM | GI50 (PC-3): 20.4 µM | GI50 (NCI/ADR-RES): 16.6 µM | GI50 (HOP-92): 50.1 µM | GI50 (HL-60(TB)): 25.7 µM

CC1=C(C(=O)Nc2ccc(F)c(Cl)c2)C(c2cccc(Cl)c2)NC(=S)N1 (stereo not drawn)
GI50 (CAKI-1): 39.8 µM | GI50 (SF-268): 10 µM | GI50 (SK-MEL-5): 8.32 µM | GI50 (COLO 205): 4.17 µM | GI50 (IGROV-1): 14.1 µM | GI50 (PC-3): 25.1 µM | GI50 (NCI/ADR-RES): 15.8 µM | GI50 (HOP-92): 32.4 µM | GI50 (HL-60(TB)): 16.2 µM

CC1=C(C(=O)Nc2ccc(F)c(Cl)c2)C(c2cccc(Oc3ccccc3)c2)NC(=S)N1 (stereo not drawn)
GI50 (CAKI-1): 12.6 µM | GI50 (SF-268): 8.91 µM | GI50 (SK-MEL-5): 8.91 µM | GI50 (COLO 205): 17.8 µM | GI50 (IGROV-1): 10.7 µM | GI50 (PC-3): 12 µM | GI50 (NCI/ADR-RES): 15.5 µM | GI50 (HOP-92): 20.9 µM | GI50 (HL-60(TB)): 17.4 µM

COc1cccc(C2NC(=S)NC(C)=C2C(=O)Nc2ccc(F)c(Cl)c2)c1 (stereo not drawn)
GI50 (CAKI-1): 49 µM | GI50 (SF-268): 18.2 µM | GI50 (SK-MEL-5): 13.2 µM | GI50 (COLO 205): 26.9 µM | GI50 (IGROV-1): 27.5 µM | GI50 (PC-3): 23.4 µM | GI50 (NCI/ADR-RES): 15.5 µM | GI50 (HOP-92): 50.1 µM | GI50 (HL-60(TB)): 17.4 µM

CC1=C(C(=O)Nc2ccc(F)c(Cl)c2)C(c2cccc(O)c2)NC(=S)N1 (stereo not drawn)
GI50 (CAKI-1): 50.1 µM | GI50 (SF-268): 17.8 µM | GI50 (SK-MEL-5): 11.2 µM | GI50 (COLO 205): 22.4 µM | GI50 (IGROV-1): 22.9 µM | GI50 (PC-3): 25.1 µM | GI50 (NCI/ADR-RES): 17 µM | GI50 (HOP-92): 50.1 µM | GI50 (HL-60(TB)): 25.7 µM

CC1=C(C(=O)Nc2ccc(F)c(Cl)c2)C(c2cccc(Oc3ccccc3)c2)NC(=O)N1 (stereo not drawn)
GI50 (CAKI-1): 10 µM | GI50 (SF-268): 8.51 µM | GI50 (SK-MEL-5): 7.59 µM | GI50 (COLO 205): 6.31 µM | GI50 (IGROV-1): 7.94 µM | GI50 (PC-3): 22.4 µM | GI50 (NCI/ADR-RES): 16.2 µM | GI50 (HOP-92): 40.7 µM | GI50 (HL-60(TB)): 13.8 µM

CC1=C(C(=O)Nc2ccc(Cl)c(Cl)c2)C(c2cccc(Oc3ccccc3)c2)NC(=S)N1 (stereo not drawn)
GI50 (CAKI-1): 8.51 µM | GI50 (SF-268): 6.17 µM | GI50 (SK-MEL-5): 7.94 µM | GI50 (COLO 205): 9.33 µM | GI50 (IGROV-1): 7.76 µM | GI50 (PC-3): 9.77 µM | GI50 (NCI/ADR-RES): 15.5 µM | GI50 (HOP-92): 13.2 µM | GI50 (HL-60(TB)): 83.2 µM

COc1cccc(C2NC(=S)NC(C)=C2C(=O)Nc2ccc(Cl)c(Cl)c2)c1 (stereo not drawn)
GI50 (CAKI-1): 17.8 µM | GI50 (SF-268): 12.6 µM | GI50 (SK-MEL-5): 9.55 µM | GI50 (COLO 205): 9.33 µM | GI50 (IGROV-1): 15.8 µM | GI50 (PC-3): 14.5 µM | GI50 (NCI/ADR-RES): 16.6 µM | GI50 (HOP-92): 12.6 µM | GI50 (HL-60(TB)): 49 µM

CC1=C(C(=O)Nc2ccc(Cl)c(Cl)c2)C(c2cccc(O)c2)NC(=S)N1 (stereo not drawn)
GI50 (CAKI-1): 22.4 µM | GI50 (SF-268): 15.8 µM | GI50 (SK-MEL-5): 10 µM | GI50 (COLO 205): 7.08 µM | GI50 (IGROV-1): 19.1 µM | GI50 (PC-3): 14.1 µM | GI50 (NCI/ADR-RES): 15.8 µM | GI50 (HOP-92): 13.5 µM | GI50 (HL-60(TB)): 11.2 µM

CC1=C(C(=O)Nc2ccc(Cl)c(Cl)c2)C(c2ccccc2O)NC(=O)N1 (stereo not drawn)
GI50 (CAKI-1): 39.8 µM | GI50 (SF-268): 28.2 µM | GI50 (SK-MEL-5): 12.6 µM | GI50 (COLO 205): 28.2 µM | GI50 (IGROV-1): 25.1 µM | GI50 (PC-3): 33.9 µM | GI50 (NCI/ADR-RES): 17.8 µM | GI50 (HOP-92): 50.1 µM | GI50 (HL-60(TB)): 50.1 µM
